Laboratory results: patent publication US10052340B2 (XIAMEN UNIVERSITY, priority 2012, dated 2018)
Numbering of substitutions follows the chain as printed.

Legend:
[1] = molecular target: T1, FXR H447F (Homo sapiens, UniProt Q96RI1, H461F); test: Reporter gene analysis with FXR point mutant H447F in COS-7 cells; type: cell-based; settings: COS-7, EcRE reporter, vs wild-type FXR, FIG. 5
T1 construct: the expression plasmid expressing full-length FXR (wt) or with mutations at the corresponding sites; expressed in transfected cells; host or cells: COS-7
T1 sequence (Q96RI1 1-472 isoform Q96RI1-2 H447F): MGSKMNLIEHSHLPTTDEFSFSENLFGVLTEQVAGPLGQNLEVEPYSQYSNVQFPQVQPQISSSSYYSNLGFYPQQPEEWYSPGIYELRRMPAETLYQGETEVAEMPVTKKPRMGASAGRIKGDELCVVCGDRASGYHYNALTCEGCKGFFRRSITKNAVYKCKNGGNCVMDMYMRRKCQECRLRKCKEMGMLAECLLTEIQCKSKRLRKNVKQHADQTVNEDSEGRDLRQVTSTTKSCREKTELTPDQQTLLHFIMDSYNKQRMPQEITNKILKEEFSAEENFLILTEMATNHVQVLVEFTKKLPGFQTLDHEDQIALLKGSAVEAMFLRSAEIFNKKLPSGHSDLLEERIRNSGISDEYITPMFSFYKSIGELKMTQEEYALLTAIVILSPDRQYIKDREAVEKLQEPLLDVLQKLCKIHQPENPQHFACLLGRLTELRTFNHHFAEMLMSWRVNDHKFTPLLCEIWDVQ
Description: (§1) (2) The expression vector of FXR with point mutations at key binding sites is obtained. Quick-Change site-directed mutagenesis kit (Stratagene) is used for mutation, and the mutation reaction system is as follows: wild-type plasmid pCMX-FXR (50 ng) of 0.5 μl, mutation primer (100 μM) of 0.2 μl, pfu DNA polymerase (Invitrogen) (2 U) of 1 μl, 10 mM dNTPs of 1 μl, 10× PCR buffer of 5 μl, and ddH2O of 43 μl. PCR procedures are performed as follows: 94° C. for 2 min; 94° C. for 30 s, 55° C. for 1 min, 72° C. for 7 min, 15 cycles. 20 μl PCR product is digested with Dpn I […], followed by taking and transforming 2 μl digestion product into E. coli Trans 109 competent cells, ice bath for 30 min, and heat shock at 42° C. for 30 s. 250 μl of LB liquid medium without antibiotics is added, and preshaken at 225 rpm at 37° C. for 40 min, followed by taking 150 μl of products, spreading same on LB solid medium plates with ampicillin at 100 μg/ml and culturing them at 37° C. overnight. On the next day, the single colony is picked out and placed in 2 ml LB liquid medium containing ampicillin at 100 μg/ml, and cultured at 37° C. overnight. Plasmid extraction is performed on the shaken bacterial solution using Qiagen MiniPrep Plasmid Minipreparation Kit. The plasmid is identified by sequencing.

[2] = molecular target: T2, human FXR (Homo sapiens, UniProt Q96RI1); test: Reporter gene analysis, COS-7 cells cotransfected with full-length FXR and EcRE-Luc; type: cell-based; settings: 0.5 μM, COS-7, EcRE reporter, FIG. 2
T2 construct: expressed in transfected cells; host or cells: COS-7
T2 sequence (Q96RI1 1-472 isoform Q96RI1-2): T1 sequence (Q96RI1 1-472 isoform Q96RI1-2 H447F) with F447H
Description: (§2) DMEM medium containing 10% fetal bovine serum is used to perform the culture of monkey kidney epithelial cell COS-7 cells, and COS-7 cells are inoculated onto a 24-well plate on the day before transfection with an inoculation density of 5×10^4 cells/well, and transfected on the next day. The transfection is the transient transfection performed using Lipofectamine 2000 (Invitrogen). In the reporter gene analysis experiment, 200 ng of a nuclear receptor full-length expression plasmid or the expression plasmid of the mutant thereof, 200 ng of endogenous promoter reporter gene, and 30 ng of Renilla luciferase expression plasmid are used for cotransfection. 500 μl Opti-MEM is added to each well and cultured for 5 h, followed by adding a ligand medicament diluted in Opti-MEM to reach the corresponding concentration, and treating for 18 h. Various nuclear receptors and the corresponding reporter gene used are as follows: human FXR, EcRE-Luc; human PPARs (α, β, and γ), PPRE-Luc; human RORs (α, β and γ), Pcp2/RORE-Luc; human GR and PR, MMTV-Luc; human RARα and RARβ, and βRE-Luc.
(§3) A ligand can be tested for the affinity to FXR since the ligand can induce FXR to recruit coregulators after binding to FXR.

[3] = tested on: other detected nuclear receptors; test: Reporter gene analysis, COS-7 cells cotransfected with other nuclear receptors (PPARs, RORs, GR, PR, RARα, RARβ, PXR, CAR); settings: 0.5 μM, COS-7, FIG. 2
Description: as §2, §3

[4] = molecular target: T3, FXR L287T (Homo sapiens, UniProt Q96RI1, L301T); test: Reporter gene analysis with FXR point mutant L287T in COS-7 cells; type: cell-based; settings: COS-7, EcRE reporter, vs wild-type FXR, FIG. 5
T3 construct: the expression plasmid expressing full-length FXR (wt) or with mutations at the corresponding sites; expressed in transfected cells; host or cells: COS-7
T3 sequence (Q96RI1 1-472 isoform Q96RI1-2 L287T): T1 sequence (Q96RI1 1-472 isoform Q96RI1-2 H447F) with L287T, F447H
Description: as §1

## CC[C@H](C)[C@H]1O[C@]2(CC[C@@H]1C)C[C@@H]1C[C@@H](C/C=C(\C)C(O[C@H]3C[C@H](OC)C(O[C@H]4C[C@H](OC)[C@@H](O)[C@H](C)O4)[C@H](C)O3)[C@@H](C)/C=C/C=C3\CO[C@@H]4[C@H](O)C(C)=CC(C(=O)O1)[C@]34O)O2 (stereo partly shown) [ivermectin]
[1]
  transcriptional activity of FXR mutant H447F: significantly increasing
[2]
  transcriptional activity of FXR: can only specifically activate the transcriptional activity of FXR
[3]
  transcriptional activity of the other detected nuclear receptors: does not produce any effect
[4]
  transcriptional activity of FXR mutant L287T: significantly increasing
